Data on two molecules can be found in patent US20040110680A1, “Beta-alethine use in cell culture and therapy” (Regents of the University of New Mexico, priority 1990, published 2004).

For data set [1] the following is noted: The Merck Index, 9th edition (#221); cited from earlier work.
The test system of data set [2] is IMR-90 human fetal lung fibroblasts. The experiment in a line: Maximum population doubling level (PDL) of IMR-90 fibroblasts, delay of cellular senescence. The data set is classed as cell-based. An excerpt:
This cell line is available from the American Type Culture Collection (ATCC, Bethesda, Md., USA) and is used as a standard for in vitro cellular senescence studies. Cellular senescence is loosely defined as those cellular process(es) that together result in the cell's inability to replenish itself in culture. This model represents aging processes in vivo, and cell lines developed from humans of different ages have PDL's in vitro which are inversely related to the chronological age of the donor. The IMR-90 cells depicted in FIG. 1 were grown under ideal conditions in McCoy's 5A synthetic medium supplemented with HEPES buffer at 10 mM; 100 units penicillin G/ml and 100 μg streptomycin/ml at standard concentrations; new born calf serum (NBCS) at 20% (V/V); and L-glutamine at 2 mM. The treated cell cultures were augmented with different concentrations of β-alethine (as indicated) dissolved in phosphate-buffered saline (PBS)—-always in a standard volume of 30 microliters per culture. […] The cells were then washed twice with the complete medium and counted in a double Neubauer hemacytometer; 2 million cells were aliquoted into a fresh tissue culture flask (T-75, polystyrene by LUX, Flow General, McClean, Md., USA) with 20 ml of fresh complete medium. […]

The test system of data set [3] is human peripheral blood leukocytes (HPBLs). The experiment in a line: Non-antigen-specific immunoglobulin synthesis and secretion by HPBLs, protein-A facilitated plaque assay (Ig-PFC). The data set is classed as cell-based. An excerpt: FIG. 2 illustrates data from a series of experiments designed to assess the effect of β-alethine on non-antigen-specific immunoglobulin synthesis and secretion in vitro by human peripheral blood leukocytes (HPBLs), generally characterized as a peripheral lymphoid organ primarily populated by medium-sized, mature lymphocytes. In these experiments, blood was taken from healthy male humans; the blood was then defibrinated on glass beads, and the leukocytes separated by centrifugation (buffy coat technique). Residual red blood cells were lysed with a brief treatment with 0.85% ammonium chloride. The leukocytes were counted and dispensed into 24 well tissue culture trays (LUX, Flow General, McClean, Md., USA) in 1 ml of RPMI 1640 basal medium supplemented with penicillin, streptomycin, 10% fetal calf serum, and L-glutamine. β-alethine was added to test cultures at various concentrations in 30 microliter doses. The cells were harvested as indicated in FIG. 2 at various times between 72 and 144 hours of culture and tested for antibody production using a conventional protein-A facilitated plaque assay (A-PFC or Ig-PFC). […] In addition, aliquots of cells were also tested for proliferation status by treating them with 0.5 μCi of tritiated thymidine (6-9 Ci/mole) followed by assessing the level of incorporation of radioactivity into newly synthesized DNA. […]

Another data set has as its system Murine hepatocytes. The experiment in a line: Adaptation of culture-resistant hepatocytes to culture (colony count). The data set is classed as cell-based, BALBc/J mice. An excerpt: FIG. 4 illustrates data from a single experiment designed to study the use of β-alethine for adapting cells to culture. The culture-resistant cells employed (hepatocytes) were taken from in vivo to in vitro growth. Murine hepatocytes were chosen owing to their being especially difficult to adapt to culture. […] In this experiment a single liver lobe from one of the BALBc/J mice was excised, pressed through a 90 mesh stainless steel screen, washed, and placed in T-25 tissue culture flasks (10 for LUX, Flow General, McClean, Md., USA). All cultures were maintained in 10 ml of the same medium as described in Example III (RPMI-1640 plus fetal calf serum plus pen/strep plus L-glutamine) and the test cultures exposed to various concentrations of β-alethine as indicated in FIG. 4. […] It was possible to obtain some viable colonies from the control cultures, but only if 10- to 20-fold higher initial cell concentrations were used; therefore the β-alethine was between 500- and 1000-fold more efficient in adapting murine hepatocytes to in vitro culture than control, i.e., saline-treated medium. […] The effect is again dose-dependent, as illustrated.

The test system of data set [4] is NS-1 myeloma cells. The experiment in a line: NS-1 myeloma in inoculated mice, early intervention. The data set is classed as in vivo. The source says:
To assure NS-1 propagation in vivo it is essential to remove DMSO (the cryostatic agent dimethyl sulfoxide) through several medium changes and dilutions; this also serves to maintain the cells in log-phases growth. […] The mice were maintained with Wayne Rodent Blox (Wayne Research Animal Diets, Chicago, Ill., USA) ad lib. and tap water.
The inoculated mice were compared to a) untreated controls and b) to carrier-injected (saline-injected) controls.

Data set [5] concerns NS-1 myeloma cells. The data set is classed as in vivo. The note with it: single mouse, 100 μg/kg; tumor cells remained in skeletal muscle, subcutaneous tissue, a mammary gland. As to the method:
NS-1 myeloma cells (ATCC TIB 18, P3/NS1/1-Ag4-1) were employed as inoculant; these cells have proven to be about 90% effective in establishing myelomas in mice according to the exemplified procedure, and the untreated myelomas are substantially fatal within about two weeks.
The cells were grown for several passages (preferably one week) in a sterile environment consisting of RPMI 1640 (Whittaker M. A. Bioproducts, Walkersville, Md., USA) containing 10% fetal calf serum (Hyclone Laboratories, Logan, Utah, USA), 2 mM L-glutamine, 5,000 units of penicillin, and 5 mg streptomycin in 75 cm^2 polystyrene tissue-culture flasks (Corning Glassworks, Corning, N.Y., USA) in a humidified chamber at 37° C. and under 6% CO2. To assure NS-1 propagation in vivo it is essential to remove DMSO (the cryostatic agent dimethyl sulfoxide) through several medium changes and dilutions; this also serves to maintain the cells in log-phases growth. […]
Wasting of the tumor and not the mouse proper was confirmed by weighing the debulked carcass. […] It was thus tentatively determined that the bone demineralized due to rapid growth of the tumor resulting in the fracture, a process which requires calcium and phosphate, and which would also explain the subsequent rapid extraskeletal deposition of calcium phosphate as the tumor was resorbed.

Where [6] appears, read: i.p., Monday, Wednesday, Friday from day 2 through day 47.

`NCCC(=O)NCCS` [β-aletheine]: the “stability in air and aqueous solutions” value in data set [1] is “unstable in air and aqueous solutions”.

`NCCC(=O)NCCSSCCNC(=O)CCN` [β-alethine, N,N′-bis-(β-alanyl-2-aminoethyl) Disulfide]: in data set [2] (absolute terms, factor of 2 raised to the power 55), the “increase in cell number (biomass)” value is recorded as 3.6×10^16 fold. The “life expectancy of the cells” value in data set [2] (augmentation of growth versus untreated cells) is “doubling of the life expectancy”. Further, the “optimal concentration for immunoglobulin production” value in data set [3] (HPBLs) is “about 5 nanograms/ml culture”. Moreover, the “immunoglobulin production relative to untreated control” value in data set [3] (dose-dependent, 72 to 144 hours of culture) is “approximately 60 times the untreated control levels”. In addition, the “colonies of hepatocytes observed” value in the data set with Murine hepatocytes (10 ng/ml, no colonies in the control culture) is recorded as “approximately 50 colonies”. Also, the “stability of treated cells in culture” value in the data set with Murine hepatocytes (long-term culture, in contrast to control cells) is recorded as “stable in culture”. Further, in the data set on NS-1 myeloma cells [4] (10 pg/kg mouse), the deaths result is “two deaths”. Also, in the data set with NS-1 myeloma cells [4] (10 μg/kg), the “normal weight gain of the mice” value is “not significantly”. Moreover, the “persistence of the palpable tumor before regression” value with NS-1 myeloma cells [4] (10 μg/kg, one mouse) was determined as 20 days. Also, the “normal weight gain of the mice” value in the data set with NS-1 myeloma cells [4] (100 μg/kg) is listed as “slightly inhibited”. In addition, the “fraction of animals that ultimately contracted tumor” value with NS-1 myeloma cells [4] (at about 10 pg/kg or 1 ng/kg, without treatment 75% euthanized or died) is given as “one-third to two-thirds”. Moreover, the “mice developing a palpable tumor” value in the data set on NS-1 myeloma cells [4] (at about 10 μg/kg or 100 μg/kg) is given as “only one mouse developed a palpable tumor”. Besides, in the data set on NS-1 myeloma cells [4] (setting [6]), the “therapeutic minimal threshold (lower end of effective range) for preventing onset of NS-1 myeloma” value is reported as 10 pg/kg mouse and the “upper end of effective concentration range for preventing onset of NS-1 myeloma” value was 100 μg/kg mouse. In addition, the “morphology of tumors developing under therapy” value in the data set on NS-1 myeloma cells [4] (untreated controls typically developed ascites) was “with few exceptions solid masses”. The “tumor cells in remaining organs (histology)” value in the data set on NS-1 myeloma cells [5] was “none of the remaining organs contained tumor cells”.
